The source of these data is patent US8026231B2, “Aminothiolester compounds, pharmaceutical and cosmetic compositions containing same and uses thereof” (CNRS, priority 2000, dated 2011).

Assay [1] concerns DU145 cells. The assay is described as follows: Growth of DU145 cells (protein and DNA assay, 72 h). It is filed as cell-based, human. How it is done: (§1) The cells used correspond to two cell lines: metastatic cells of human prostate cancer (DU145) and murine lymphoid cells transfected with the human bcl2 gene (BAF3 bcl2).
The procedure used for the tests on DU145 is as follows: • 10^5 cells are incubated in the various wells of a microplate in 1 ml of culture medium.
(§2) The compounds are added 4 hours after placing the cells in the wells.
After 72 hours, the cells are removed at different times. The DU145 cells are washed twice with PBS and recovered directly with 0.1M sodium chloride.
The effect on the growth of the DU145 cells is measured by protein assay according to the Lowry method (Lowry, O. H., Rosenbrough, N. J., Farr, A. L. and Randall, J. Biol. Chem. 193, 265-275, (1951)) and DNA assay by the Hoechst method (West, D. C., Sattar, A. and Kumar, S., Anal. Biochem. 147, 289-295, (1985)).
(§3) The IC50 concentration is the concentration corresponding to a 50% inhibition of cell growth.

Another assay relates to BAF3 bcl2 cells. The assay is described as follows: Growth of BAF3 bcl2 cells (viable cell count, Trypan blue). It is filed as cell-based, murine. As to conditions: 50% inhibition of cell growth. The protocol:
as §1
The procedure used for the tests on BAF3 bcl2 cells is as follows: • 10^5 cells are incubated in the various wells of a microplate in 1 ml of culture medium. After incubation for 4 hours, the test compounds are added to the wells containing the BAF3 bcl2 cells.
For the BAF3 bcl2 cells, the growth is measured by counting the viable cells in the presence of 0.1% Trypan blue. The control consists of thioampal, disclosed in patent application WO 98/44919.
as §3

Assay [2] has as its system normal human prostate cells. The assay is described as follows: Combination of two compounds of the invention on normal human prostate cells. Particulars: Homo sapiens, Prostate cell. In kind it is cell-based. How it is done: (§4) 10^5 normal human prostate cells or 10^5 cancerous human prostate cells (DU145) are incubated in various wells of a microplate in 1 ml of culture medium.
as §2
(§5) After 72 hours, the cells are removed at different times. The DU145 cells or the normal cells are washed twice with PBS and recovered directly with 0.1M sodium chloride.
(§6) The effect on the growth of the DU145 cells or the normal cells is measured by protein assay according to the Lowry method (Lowry, O. H., Rosenbrough, N. J., Farr, A. L. and Randall, J. Biol. Chem. 193, 265-275, (1951)) and DNA assay by the Hoechst method (West, D. C., Sattar, A. and Kumar, S., Anal. Biochem. 147, 289-295, (1985)).

Assay [3] concerns DU145 cells. The assay is described as follows: Combination of two compounds of the invention on the growth of DU145 cells. In kind it is cell-based, human. As to conditions: Homo sapiens, DU-145. How it is done:
as §4, §2, §5, §6

The subject of assay [4] is DU145 cells. In words: Combination of Example 1 and Metmetlico on the growth of DU145 cells. In kind it is cell-based, human. How it is done: The cells used correspond to metastatic cells of human prostate cancer DU145. 10^5 DU145 cells are incubated in the various wells of a microplate in 1 ml of culture medium. The test compounds are added 4 hours after placing the cells in the wells. After 72 hours, the cells are removed at different times. The cells are washed twice with PBS and recovered directly with 0.1M sodium chloride. The effect on the growth of DU145 cells is measured by protein assay according to the Lowry method (Lowry, O. H., Rosenbrough, […]. and Randall, J. Biol. Chem. 193, 265-275, (1951)) and DNA assay by the Hoechst method (West, […]. and Kumar, S., Anal. Biochem. 147, 289-295, (1985)). The test compounds are the compound of Example 1, metmetlico and a mixture thereof.

A further assay relates to R7 cells. The assay is described as follows: Growth of R7 cells which overexpress the MDR gene. It is filed as cell-based. As to conditions: increasing concentrations, 72 h, FIGS. 7 and 8. The protocol:
(§7) 10^5 cells were incubated in the various wells of a microplate in 1 ml of culture medium. These are R7 cells, on the one hand, and K562 cells, on the other hand.
(§8) After incubating for 4 hours, the test compound (compound of Example 1 according to the invention, on the one hand, and daunorubicin, on the other hand) was added to the wells containing the cells.
(§9) After 72 hours, the cells were collected at different times.
(§10) The growth of the cells was measured by counting the viable cells in the presence of 0.1% Trypan blue.
(§11) FIGS. 7 and 8 respectively represent the percentage inhibition (I %) by daunorubicin and the compound of Example 1 on the growth of the R7 and K562 cells, obtained at increasing concentrations C. The results obtained with the K562 cells are symbolized by ♦ and those obtained with the R7 cells are symbolized by ▴.

In another assay the test system is K562 cells. In words: Growth of K562 cells (control, no MDR overexpression). In kind it is cell-based, human. Particulars: increasing concentrations, 72 h, FIGS. 7 and 8. The protocol:
as §7, §8, §9, §10, §11

The mark [5] stands for this setting: Homo sapiens, DU-145, 50% inhibition of cell growth.

The term IC50 denotes the point on the concentration scale where inhibition reaches its midpoint. A lower IC50 goes with greater potency in that assay. As to `CSC(=O)C#CC(C)(C)N1CCCC1` [Example 4, S-methyl 4-methyl-4-pyrrodin-1-yl-2-pentynethioate], the IC50 amounted to 7.2 µM with DU145 cells [1] (50% inhibition of cell growth) and 2.7 µM with BAF3 bcl2 cells.

The inhibition is the percentage by which the read-out fell short of the control. Turning to `CSC(=O)C#CC(C)(C)N1CCOCC1` [Example 5, S-methyl 4-methyl-4-morpholin-4-yl-2-pentynethioate], the IC50 was determined as 8.8 µM in the assay with DU145 cells [1] (setting [5]) and 12 µM in the assay on BAF3 bcl2 cells (Mus musculus). Further, the inhibition at 1 µM stood at 0% in assay [2] (1 μM) and 14.3% in the assay with DU145 cells [3] (1 μM). Besides, the inhibition at 2 µM in assay [2] (2 μM) was determined as 1.3%; with DU145 cells [3] (2 μM), 25.2%.

Turning to `CCCN(CCC)C(C)(C)C#CC(=O)SC` [Example 3, S-methyl 4-di-n-propylamino-4-methyl-2-pentynethioate], the IC50 in the assay on DU145 cells [1] (setting [5]) was 8 µM; in the assay with BAF3 bcl2 cells (Mus musculus), 2.7 µM.

Turning to `CSCCC(=O)SCCC(CCCCC(=O)OCC[N+](C)(C)C)SC(=O)CCSC.[I-]` (stereo not drawn) [Metmetlico, 2′-(trimethylammonium)ethyl 6S,8S-bis(3-methyl-thiopropanoyl)octanoate iodide, reference compound], the “% Inhibition of growth of the DU145 cells” value in the assay with DU145 cells [4] (25 μM) and with DU145 cells [4] (50 μM) was 0% each time.

For `COc1cccc2c1C(=O)c1c(O)c3c(c(O)c1C2=O)C[C@@](O)(C(C)=O)C[C@@H]3O[C@H]1C[C@H](N)[C@H](O)[C@H](C)O1` [daunorubicin, reference compound], in the assay with R7 cells, the “Inhibition of the growth of the R7 cells” value is reported as “no inhibitory effect on the growth of the R7 cells”. The “Inhibition of the growth of the K562 cells” value in the assay with K562 cells was “inhibits the growth of the K562 cells”.
